Molecular target: human HPK1 (MAP4K1) (Homo sapiens (Human), UniProt Q92918)
Assay: HPK1 IC50 Assay (TR-FRET biochemical kinase assay, STK S1 peptide substrate)
Settings: recombinant human HPK1 kinase domain 0.15 nM, 10 μM ATP, 1 μM STK S1 peptide; geometric mean
Outline: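 Pre-activated recombinant kinase domain (insect cells; 0.15 nM) pre-incubated with compounds for 15 min, then 10 μM ATP and 1 μM STK S1 peptide added for 3 h at 25 °C in BES pH 7.0. Phosphorylation read by HTRF (665/620 nm). IC50 from four-parameter fits normalized to staurosporine/DMSO controls, geometric mean of repeats.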

Sequence of human HPK1 (MAP4K1) (Q92918 17-274): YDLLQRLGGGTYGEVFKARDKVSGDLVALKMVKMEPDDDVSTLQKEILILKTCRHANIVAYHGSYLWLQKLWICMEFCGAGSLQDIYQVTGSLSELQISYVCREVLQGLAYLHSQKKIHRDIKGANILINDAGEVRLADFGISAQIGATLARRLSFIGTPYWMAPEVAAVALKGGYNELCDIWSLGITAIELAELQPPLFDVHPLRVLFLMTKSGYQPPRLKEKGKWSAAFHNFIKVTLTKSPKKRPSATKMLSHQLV

IC50: 0.3 nM
Structure (SMILES): CC(C)n1cnc2cc(-c3ccc4c(c3)N([C@H]3C[C@@H](N5CCCCC5)C3)C(=O)C43CCN(C(=O)C4(C#N)CC4)CC3)nc(Nc3ccncc3F)c21 [Example 142]

— patent US11071730B2, “Substituted 6-azabenzimidazole compounds” (Gilead Sciences, Inc., priority 2018, dated 2021)
